Assay results reported in publication PMC3189771, “Structure–Activity Relationship of Halophenols as a New Class of Protein Tyrosine Kinase Inhibitors” (International Journal of Molecular Sciences, 2011).

Key:
[1] = biological target: protein tyrosine kinase (PTK); assay: in vitro PTK inhibitory activity by ELISA (brain cytoplasmic tyrosine kinase extract, PGT substrate); format: biochemical, mouse; conditions: genistein as positive control; for IC50: determined in triplicate
Experimental: After removal of the male mouse (SD) meninges, the brain was weighted and homogenized with a glass homogenizer in four volumes of cold medium (containing 20 mmol/L Tris–HCl, pH 7.5, 0.25 mol/L sucrose, 2 mmol/L DDT, 2 mmol/L EDTA, 2 mmol/L Na3VO4, 1 mmol/L DMSF, 215 mg/L aprotinin, 1 mg/L PTIFtatin, 5 mg/L leupeptin) at high speed. The mixture was centrifuged for 10 min at 1000 × g at 4 °C; the supernatant was collected and re-centrifuged for 10 min at 10,000 × g at 4 °C to obtain the target supernatant. The target supernatant that contained cytoplasmic tyrosine kinase was collected, separately packed and stored at −70 °C.
PTK activity was determined by the ELISA method. In brief, the concentrations of PTKs used to construct calibration curves were as follows: 600, 500, 341, 200 and 100 × 10^−7 U/mL for PTK. 100 μL of 20 mg/L PGT (Sigma Aldrich) in 20 mmol/L PBS solution was added to 96-well microtiter plates at 37 °C overnight. After removing excess substrate solution, PBS–Tween 20 (PBST) was used to wash the wells one time, which were dried for 2 h at 37 °C and kept at 4 °C. Subsequently, 50 μL of the above PTK extraction (50 mmol/L HEPES, pH 7.4, 20 mmol/L MgCl2, 0.1 mmol/L MnCl2, 0.2 mmol/L Na3VO4, 0.6 mmol/L ATP) was added to the 96-well plates. Then, a certain concentration of the tested compounds (10 μL) and tyrosine kinase tissue extract solution were incubated at 37 °C for 1 h. The plate was washed three times with PBST at the end of the treatment, and 100 μL of the diluted horseradish-peroxidase-labeled mouse anti-phosphotyrosine monoclonal antibody IgG2bk (Sigma Aldrich) was added to each well, and incubated at 37 °C for 30 min. After removal of the antibody complex, and then washing three times with PBST, 100 μL freshly prepared TMB horseradish peroxidase color development solution (Beijing 4A Biotech Co., Ltd, China) was added and protected from light for 10 min. The reaction was terminated by addition of 100 μL/well 1 N sulfuric acid. Absorbance was measured at 450 nm in a microplate reader (SpectraMax M5).

Compound	melting point [°C]	IC50 [1] [µM]	PTK inhibitory activity (in words) [1]
COc1ccc(C(=O)c2ccccc2F)cc1OC [Compound 1a, 2-fluoro-3′,4′-dimethoxyl benzophenone]	77 to 79	–	–
O=C(c1ccc(O)c(O)c1)c1ccccc1F [Compound 1c, 2-fluoro-3′,4′-dihydroxyl benzophenone]	149 to 150	> 50	–
Oc1ccc(Cc2ccccc2F)cc1O [Compound 1d, 2-fluoro-3′,4′-dihydroxyl diphenylmethane]	91 to 92	> 50	–
COc1ccc(C(=O)c2cccc(F)c2)cc1OC [Compound 2a, 3-fluoro-3′,4′-dimethoxyl benzophenone]	103 to 105	–	–
O=C(c1cccc(F)c1)c1ccc(O)c(O)c1 [Compound 2c, 3-fluoro-3′,4′-dihydroxyl benzophenone]	104 to 106	> 50	–
Oc1ccc(Cc2cccc(F)c2)cc1O [Compound 2d, 3-fluoro-3′,4′-dihydroxyl diphenylmethane]	66 to 68	> 50	–
COc1ccc(C(=O)c2ccc(F)cc2)cc1OC [Compound 3a, 4-fluoro-3′,4′-dimethoxyl benzophenone]	101 to 103	–	–
O=C(c1ccc(F)cc1)c1ccc(O)c(O)c1 [Compound 3c, 4-fluoro-3′,4′-dihydroxyl benzophenone]	155 to 157	> 50	–
Oc1ccc(Cc2ccc(F)cc2)cc1O [Compound 3d, 4-fluoro-3′,4′-dihydroxyl diphenylmethane]	59 to 61	> 50	–
COc1ccc(C(=O)c2ccccc2I)cc1OC [Compound 4a, 2-iodo-3′,4′-dimethoxyl benzophenone]	143 to 145	–	–
O=C(c1ccc(O)c(O)c1)c1ccccc1I [Compound 4c, 2-iodo-3′,4′-dihydroxyl benzophenone]	186 to 188	> 50	–
Oc1ccc(Cc2ccccc2I)cc1O [Compound 4d, 2-iodo-3′,4′-dihydroxyl diphenylmethane]	130 to 132	> 50	–
O=C(c1ccc(O)c(O)c1)c1c(Br)c(O)c(O)c(O)c1Br [Compound 5c]	–	> 50	no activity
Oc1ccc(Cc2c(Br)c(O)c(O)c(O)c2Br)cc1O [Compound 5d]	–	> 50	no activity
O=C(c1ccc(O)c(O)c1)c1c(Cl)c(O)c(O)c(O)c1Cl [Compound 6c]	–	2.97	stronger activities than that of genistein
Oc1ccc(Cc2c(Cl)c(O)c(O)c(O)c2Cl)cc1O [Compound 6d]	–	3.96	stronger activities than that of genistein

Compound	melting point [°C]	IC50 [1] [µM]	PTK inhibitory activity (in words) [1]
O=C(c1ccc(O)c(Br)c1)c1cc(O)c(O)cc1Br [Compound 7c]	–	> 50	no activity
Oc1cc(Br)c(Cc2ccc(O)c(Br)c2)cc1O [Compound 7d]	–	6.34	stronger activities than that of genistein
O=C(c1ccc(O)c(O)c1)c1ccccc1Cl [Compound 8c]	–	17.7	–
Oc1ccc(Cc2ccccc2Cl)cc1O [Compound 8d]	–	14.8	–
O=C(c1cccc(Cl)c1)c1ccc(O)c(O)c1 [Compound 9c]	–	17.8	–
Oc1ccc(Cc2cccc(Cl)c2)cc1O [Compound 9d]	–	12.9	stronger activities than that of genistein
O=C(c1ccc(Cl)cc1)c1ccc(O)c(O)c1 [Compound 10c]	–	41.6	–
Oc1ccc(Cc2ccc(Cl)cc2)cc1O [Compound 10d]	–	6.97	stronger activities than that of genistein
O=C(c1ccccc1)c1cc(O)c(O)cc1Br [Compound 11c]	–	16	–
Oc1cc(Br)c(Cc2ccccc2)cc1O [Compound 11d]	–	6.26	stronger activities than that of genistein
O=C(c1ccccc1)c1cc(O)c(O)c(Br)c1Br [Compound 12c]	–	> 50	–
Oc1cc(Cc2ccccc2)c(Br)c(Br)c1O [Compound 12d]	–	> 50	–
O=C(c1cc(Br)ccc1O)c1cc(O)c(O)cc1Br [Compound 13c]	–	> 50	no activity
Oc1cc(Br)c(Cc2cc(Br)ccc2O)cc1O [Compound 13d]	–	5.05	stronger activities than that of genistein
O=c1c(-c2ccc(O)cc2)coc2cc(O)cc(O)c12 [Genistein, genistein, reference compound]	–	13.6	–
